Data: patent publication US20250129069A1, “TRIAZOLO WRN INHIBITORS” (Nimbus Wadjet, Inc., priority 2023, published 2025)

Legend:
[1] = molecular target: human Werner helicase (WRN, amino acids 517-1235 with L1074F point mutation) (Homo sapiens (Human), UniProt Q14191, L1074F); experiment: WRN (BV08) ADP-Glo assay; format: biochemical; conditions: human WRN (aa 517-1235, L1074F), read-out: ADP-Glo_hWRN_IC50
In short: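 Untagged WRN 517-1235 (L1074F), Sf9/baculovirus-expressed, 0.15 nM, preincubated 15 min with compound, then 5 μM ATP and 0.1 nM annealed DNA duplex added; 60 min at 25 °C in Bicine pH 7.5, 1 mM MgCl2, 1% DMSO. ADP-Glo luminescence; % inhibition vs DMSO and 20 μM NSC-617145 controls, four-parameter IC50 fit.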

[2] = tested on: p21 induction in HCT 116 cells; experiment: p21 induction in cells (In-Cell Western, p21/GAPDH ratio); format: cell-based; conditions: Homo sapiens, 24 h compound incubation, read-out: p21_EC50
In short: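 HCT 116 cells treated 24 h at 37° C with 11-point, 2-fold dilutions typically from 10 μM, in duplicate. Fixed cells co-stained for p21 (800 nm) and GAPDH (700 nm) by In-Cell Western. p21/GAPDH ratio normalised between DMSO and reference WRN inhibitor controls, and EC50 obtained by nonlinear regression.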

Sequence of human Werner helicase (WRN, amino acids 517-1235 with L1074F point mutation) (Q14191 other isoform, or with tags, fused parts or gaps L1074F (already in the parent)): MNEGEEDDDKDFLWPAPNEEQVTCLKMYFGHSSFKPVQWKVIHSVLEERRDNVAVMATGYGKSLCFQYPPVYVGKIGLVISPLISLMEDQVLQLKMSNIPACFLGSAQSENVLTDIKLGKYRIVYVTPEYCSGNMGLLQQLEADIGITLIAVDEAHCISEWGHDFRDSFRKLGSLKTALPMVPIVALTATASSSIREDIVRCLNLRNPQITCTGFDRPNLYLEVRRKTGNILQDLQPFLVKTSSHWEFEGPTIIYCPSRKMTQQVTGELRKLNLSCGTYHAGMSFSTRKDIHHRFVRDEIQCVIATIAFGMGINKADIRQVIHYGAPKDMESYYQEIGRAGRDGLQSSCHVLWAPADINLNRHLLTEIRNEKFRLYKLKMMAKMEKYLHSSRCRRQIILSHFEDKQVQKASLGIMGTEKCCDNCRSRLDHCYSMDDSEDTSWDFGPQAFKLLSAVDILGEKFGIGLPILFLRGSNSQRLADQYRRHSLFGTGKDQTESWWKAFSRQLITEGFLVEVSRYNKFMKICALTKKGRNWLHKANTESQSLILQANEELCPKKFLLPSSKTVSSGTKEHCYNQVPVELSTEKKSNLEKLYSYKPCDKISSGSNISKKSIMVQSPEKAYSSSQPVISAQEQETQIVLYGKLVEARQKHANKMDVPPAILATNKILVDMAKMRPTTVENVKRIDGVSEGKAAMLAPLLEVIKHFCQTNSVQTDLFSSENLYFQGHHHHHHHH

SMILES | IC50 [1] | EC50 [2]
CCc1c(N2CCN(C(=O)c3ncnc(C)c3O)[C@H]3CC[C@@H]32)c(=O)c2nn(-c3ccnc(C)c3)nc2n1CC(=O)Nc1ccc(C(F)(F)F)cc1F [Compound I-59, 2-{5-ethyl-6-[(1S,6S)-5-(5-hydroxy-6-methylpyrimidine-4-carbonyl)-2,5-diazabicyclo[4.2.0]octan-2-yl]-2-(2-methylpyridin-4-yl)-7-oxo-2H,4H,7H-[1,2,3]triazolo[4,5-b]pyridin-4-yl}-N-[2-fluoro-4-(trifluoromethyl)phenyl]acetamide] | ≤ 5 nM | ≤ 500 nM
CCc1c(N2CCN(C(=O)c3c(OC)ncc(C)c3O)[C@H]3CC[C@@H]32)c(=O)c2nn(-c3ccnc(C)c3)nc2n1CC(=O)NC12CC(C(C)C)(C1)C2 [Compound I-94, 2-{5-ethyl-6-[(1S,6S)-5-(4-hydroxy-2-methoxy-5-methylpyridine-3-carbonyl)-2,5-diazabicyclo[4.2.0]octan-2-yl]-2-(2-methylpyridin-4-yl)-7-oxo-2H,4H,7H-[1,2,3]triazolo[4,5-b]pyridin-4-yl}-N-[3-(propan-2-yl)bicyclo[1.1.1]pentan-1-yl]acetamide] | 5 to 50 nM | ≤ 500 nM
CCc1c(N2CCN(C(=O)c3ncnc(C)c3O)[C@H]3CC[C@@H]32)c(=O)c2nn(-c3ccnc(OC)c3)nc2n1CC(=O)NC1CC2(CCCC2)C1 [Compound I-89, 2-{5-ethyl-6-[(1S,6S)-5-(5-hydroxy-6-methylpyrimidine-4-carbonyl)-2,5-diazabicyclo[4.2.0]octan-2-yl]-2-(2-methoxypyridin-4-yl)-7-oxo-2H,4H,7H-[1,2,3]triazolo[4,5-b]pyridin-4-yl}-N-{spiro[3.4]octan-2-yl}acetamide] | 5 to 50 nM | ≤ 500 nM
CCc1c(C2=CCN(C(=O)c3ncnc(C)c3O)CC2)c(=O)c2nn(-c3ccnc(OC)c3)nc2n1CC(=O)NC12CC(C(C)C)(C1)C2 [Compound I-79, 2-{5-ethyl-6-[1-(5-hydroxy-6-methylpyrimidine-4-carbonyl)-1,2,3,6-tetrahydropyridin-4-yl]-2-(2-methoxypyridin-4-yl)-7-oxo-2H,4H,7H-[1,2,3]triazolo[4,5-b]pyridin-4-yl}-N-[3-(propan-2-yl)bicyclo[1.1.1]pentan-1-yl]acetamide] | 5 to 50 nM | 500 to 2000 nM
CCc1c(N2CCN(C(=O)c3ncnc(C)c3O)[C@H]3CC[C@@H]32)c(=O)c2nn(C3CC3(F)F)nc2n1CC(=O)Nc1ccc(C(F)(F)F)cc1Cl (stereo partly drawn) [Compound I-189, N-[2-chloro-4-(trifluoromethyl)phenyl]-2-[2-(2,2-difluorocyclopropyl)-5-ethyl-6-[(1S,6S)-5-(5-hydroxy-6-methylpyrimidine-4-carbonyl)-2,5-diazabicyclo[4.2.0]octan-2-yl]-7-oxo-2H,4H,7H-[1,2,3]triazolo[4,5-b]pyridin-4-yl]acetamide] | ≤ 5 nM | ≤ 500 nM
CCc1c(N2CCN(C(=O)c3ncnc(C)c3O)[C@H]3CC[C@@H]32)c(=O)c2nn(C3CC4(COC4)C3)nc2n1CC(=O)NC12CC(C(C)C)(C1)C2 [Compound I-160, 2-{5-ethyl-6-[(1S,6S)-5-(5-hydroxy-6-methylpyrimidine-4-carbonyl)-2,5-diazabicyclo[4.2.0]octan-2-yl]-2-{2-oxaspiro[3.3]heptan-6-yl}-7-oxo-2H,4H,7H-[1,2,3]triazolo[4,5-b]pyridin-4-yl}-N-[3-(propan-2-yl)bicyclo[1.1.1]pentan-1-yl]acetamide] | 5 to 50 nM | 2000 to 5000 nM
CCc1c(N2CCN(C(=O)c3ncnc(C)c3O)[C@H]3CC[C@@H]32)c(=O)c2nn(-c3cc(C)n(C)n3)nc2n1CC(=O)NC12CC(C3CC3)(C1)C2 [Compound I-34, N-{3-cyclopropylbicyclo[1.1.1]pentan-1-yl}-2-[2-(1,5-dimethyl-1H-pyrazol-3-yl)-5-ethyl-6-[(1S,6S)-5-(5-hydroxy-6-methylpyrimidine-4-carbonyl)-2,5-diazabicyclo[4.2.0]octan-2-yl]-7-oxo-2H,4H,7H-[1,2,3]triazolo[4,5-b]pyridin-4-yl]acetamide] | 5 to 50 nM | ≤ 500 nM
CCc1c(N2CCN(C(=O)c3c(O)ccc(C)c3OC)CC2)c(=O)c2nn(-c3ccnc(OC)c3)nc2n1CC(=O)NC12CC(C3CC3)(C1)C2 [Compound I-110, N-{3-cyclopropylbicyclo[1.1.1]pentan-1-yl}-2-{5-ethyl-6-[4-(6-hydroxy-2-methoxy-3-methylbenzoyl)piperazin-1-yl]-2-(2-methoxypyridin-4-yl)-7-oxo-2H,4H,7H-[1,2,3]triazolo[4,5-b]pyridin-4-yl}acetamide] | 5 to 50 nM | 500 to 2000 nM
CCc1c(N2CCN(C(=O)c3[nH]cnc3C#N)[C@H]3CC[C@@H]32)c(=O)c2nn(C3=CCOCC3)nc2n1CC(=O)NC12CC(C(C)C)(C1)C2 [Compound I-170, 2-{6-[(1S,6S)-5-(4-cyano-1H-imidazole-5-carbonyl)-2,5-diazabicyclo[4.2.0]octan-2-yl]-2-(3,6-dihydro-2H-pyran-4-yl)-5-ethyl-7-oxo-2H,4H,7H-[1,2,3]triazolo[4,5-b]pyridin-4-yl}-N-[3-(propan-2-yl)bicyclo[1.1.1]pentan-1-yl]acetamide] | 5 to 50 nM | > 5000 nM
CCc1c(N2CCN(C(=O)c3ncnc(C)c3O)[C@H]3CC[C@@H]32)c(=O)c2nn(-c3cnn(C4CC4)c3)nc2n1CC(=O)NC12CC(C(C)C)(C1)C2 [Compound I-25, 2-(2-(1-cyclopropyl-1H-pyrazol-4-yl)-5-ethyl-6-((1S,6S)-5-(5-hydroxy-6-methylpyrimidine-4-carbonyl)-2,5-diazabicyclo[4.2.0]octan-2-yl)-7-oxo-2,7-dihydro-4H-[1,2,3]triazolo[4,5-b]pyridin-4-yl)-N-(3-isopropylbicyclo[1.1.1]pentan-1-yl)acetamide] | 5 to 50 nM | ≤ 500 nM
CCc1c([C@]23CCN(C(=O)c4ncnc(C)c4O)C[C@H]2C3)c(=O)c2nn(-c3ccnc(OC)c3)nc2n1CC(=O)NC12CC(C(C)C)(C1)C2 (relative stereo) [Compound I-41, rel-2-{5-ethyl-6-[(1R,6S)-3-(5-hydroxy-6-methylpyrimidine-4-carbonyl)-3-azabicyclo[4.1.0]heptan-6-yl]-2-(2-methoxypyridin-4-yl)-7-oxo-2H,4H,7H-[1,2,3]triazolo[4,5-b]pyridin-4-yl}-N-[3-(propan-2-yl)bicyclo[1.1.1]pentan-1-yl]acetamide] | 5 to 50 nM | 2000 to 5000 nM
CCc1c(N2CCN(C(=O)c3c(OC)ncc(C4CC4)c3O)CC2)c(=O)c2nn(-c3ccnc(OC)c3)nc2n1CC(=O)NC12CC(C(C)C)(C1)C2 [Compound I-65, 2-{6-[4-(5-cyclopropyl-4-hydroxy-2-methoxypyridine-3-carbonyl)piperazin-1-yl]-5-ethyl-2-(2-methoxypyridin-4-yl)-7-oxo-2H,4H,7H-[1,2,3]triazolo[4,5-b]pyridin-4-yl}-N-[3-(propan-2-yl)bicyclo[1.1.1]pentan-1-yl]acetamide] | 5 to 50 nM | 500 to 2000 nM
CCc1c(N2CCN(C(=O)c3c(OC)ncc(C)c3O)CC2)c(=O)c2nn(-c3ccnc(OC)c3)nc2n1CC(=O)NC12CC(CC(F)(F)F)(C1)C2 [Compound I-131, 2-{5-ethyl-6-[4-(4-hydroxy-2-methoxy-5-methylpyridine-3-carbonyl)piperazin-1-yl]-2-(2-methoxypyridin-4-yl)-7-oxo-2H,4H,7H-[1,2,3]triazolo[4,5-b]pyridin-4-yl}-N-[3-(2,2,2-trifluoroethyl)bicyclo[1.1.1]pentan-1-yl]acetamide] | 5 to 50 nM | 500 to 2000 nM
CCc1c(N2CCN(C(=O)c3c(OC)ccc[n+]3[O-])CC2)c(=O)c2nn(C3=CCOCC3)nc2n1CC(=O)Nc1ccc(C(F)(F)F)cc1Cl [Compound I-214, 2-{4-[4-({[2-chloro-4-(trifluoromethyl)phenyl]carbamoyl}methyl)-2-(3,6-dihydro-2H-pyran-4-yl)-5-ethyl-7-oxo-2H,4H,7H-[1,2,3]triazolo[4,5-b]pyridin-6-yl]piperazine-1-carbonyl}-3-methoxypyridin-1-ium-1-olate] | 5 to 50 nM | > 5000 nM
CCc1c(N2CCN(C(=O)c3ncnc(C)c3O)CC2)c(=O)c2nn(-c3ccccn3)nc2n1CC(=O)NC12CC(C(C)C)(C1)C2 [Compound I-101, 2-{5-ethyl-6-[4-(5-hydroxy-6-methylpyrimidine-4-carbonyl)piperazin-1-yl]-7-oxo-2-(pyridin-2-yl)-2H,4H,7H-[1,2,3]triazolo[4,5-b]pyridin-4-yl}-N-[3-(propan-2-yl)bicyclo[1.1.1]pentan-1-yl]acetamide] | 5 to 50 nM | 500 to 2000 nM
CCc1c(N2CCN(C(=O)c3ncnc(C)c3O)[C@H]3CC[C@@H]32)c(=O)c2nn([C@@H]3CC3(F)F)nc2n1CC(=O)Nc1ccc(C(F)(F)F)cc1Cl (single isomer, unassigned) [Compound I-215] | ≤ 5 nM | ≤ 500 nM
CCOc1ncc(C)c(O)c1C(=O)N1CCN(c2c(CC)n(CC(=O)NC34CC(C(C)C)(C3)C4)c3nn(-c4ccnc(OC)c4)nc3c2=O)CC1 [Compound I-98, 2-{6-[4-(2-ethoxy-4-hydroxy-5-methylpyridine-3-carbonyl)piperazin-1-yl]-5-ethyl-2-(2-methoxypyridin-4-yl)-7-oxo-2H,4H,7H-[1,2,3]triazolo[4,5-b]pyridin-4-yl}-N-[3-(propan-2-yl)bicyclo[1.1.1]pentan-1-yl]acetamide] | 5 to 50 nM | ≤ 500 nM
